Test results as given in ChEMBL document CHEMBL5331103, “Discovery of novel 2-hydroxyl-4-benzyloxybenzyl aniline derivatives as potential multifunctional agents for the treatment of Parkinson's disease” (Eur J Med Chem, 2023).
pIC50: −log10 of the molar value. Activity calls are given as the source filed them. The calls are words filed in the database; no cut-off is given here.

Experiments:
[1] = target: T1, Amine oxidase [flavin-containing] A (Homo sapiens, UniProt P21397); assay: Inhibition of MAO-A (unknown origin) using kynuramine as substrate at 10 uM preincubated for 30 mins followed by substrate addition and measured after 30 mins by fluorescence based analysis relative to control; conditions: 0.5 h, time 60 min
T1 sequence (P21397 whole entry): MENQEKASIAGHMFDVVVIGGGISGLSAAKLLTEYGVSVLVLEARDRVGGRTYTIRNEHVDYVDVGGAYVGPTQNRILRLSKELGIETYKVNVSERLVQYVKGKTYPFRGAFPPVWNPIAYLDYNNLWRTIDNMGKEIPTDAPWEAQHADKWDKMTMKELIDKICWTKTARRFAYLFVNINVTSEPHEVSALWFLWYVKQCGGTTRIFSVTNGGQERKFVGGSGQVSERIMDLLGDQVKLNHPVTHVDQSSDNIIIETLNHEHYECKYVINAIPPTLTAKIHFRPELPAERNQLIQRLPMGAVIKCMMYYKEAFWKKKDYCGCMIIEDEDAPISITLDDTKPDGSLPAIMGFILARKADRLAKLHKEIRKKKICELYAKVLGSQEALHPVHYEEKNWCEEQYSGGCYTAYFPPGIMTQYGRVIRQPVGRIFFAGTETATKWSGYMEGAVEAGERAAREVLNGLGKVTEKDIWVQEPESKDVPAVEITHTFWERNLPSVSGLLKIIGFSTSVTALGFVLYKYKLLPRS

[2] = target: T2, Amine oxidase [flavin-containing] B (Homo sapiens, UniProt P27338)
T2 sequence (P27338 whole entry): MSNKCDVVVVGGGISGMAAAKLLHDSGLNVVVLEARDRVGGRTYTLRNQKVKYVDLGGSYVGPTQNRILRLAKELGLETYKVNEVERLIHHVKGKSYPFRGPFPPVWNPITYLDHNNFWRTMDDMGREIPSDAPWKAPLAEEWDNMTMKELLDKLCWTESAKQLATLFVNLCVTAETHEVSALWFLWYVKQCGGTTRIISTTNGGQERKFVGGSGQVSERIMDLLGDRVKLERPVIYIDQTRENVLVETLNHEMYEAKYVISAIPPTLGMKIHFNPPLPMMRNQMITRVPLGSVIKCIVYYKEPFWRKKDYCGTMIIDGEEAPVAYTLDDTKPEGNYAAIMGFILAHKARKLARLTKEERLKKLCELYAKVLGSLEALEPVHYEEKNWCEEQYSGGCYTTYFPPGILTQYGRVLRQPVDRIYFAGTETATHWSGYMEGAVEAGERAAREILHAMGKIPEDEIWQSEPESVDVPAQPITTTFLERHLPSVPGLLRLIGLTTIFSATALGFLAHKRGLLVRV
Description: Inhibition of MAO-B (unknown origin) using kynuramine as substrate preincubated for 30 mins followed by substrate addition and measured after 30 mins by fluorescence based analysis

[3] = species on record: Mus musculus; conditions: C57BL/6C, dose 50.0 mg/kg, route ig, time 3.0 weeks

inhibition at 10 µM [1] | pIC50 [2] | SMILES | inhibition [3]
49.2% | 7.48 | Oc1cc(OCc2ccc(F)c(Cl)c2)ccc1CNc1ccccc1 | 
51.2% | 7.24 | Oc1cc(OCc2ccc(Cl)cc2)ccc1CNc1ccccc1 | 
48% | 7.68 | Oc1cc(OCc2ccc(F)c(F)c2)ccc1CNc1ccccc1 | 
35.5% | 7.17 | Oc1cccc(NCc2ccc(OCc3ccc(F)cc3)cc2O)c1 | 
38.3% | 7.46 | Oc1cc(OCc2ccc(F)cc2)ccc1CNc1ccccc1F | 

Continued, compound first:

SMILES | inhibition at 10 µM [1] | pIC50 [2] | inhibition [3]
Oc1cc(OCc2ccccc2F)ccc1CNc1ccccc1 | 8.34% | 6.48 | 
C[C@H](NCc1ccc(OCc2cccc(F)c2)cc1)C(N)=O [SAFINAMIDE] | 25.7% |  | Active
Oc1cc(OCc2cccc(C(F)(F)F)c2)ccc1CNc1ccccc1 | 9.25% | 6.53 | 
COc1cccc(COc2ccc(CNc3ccccc3)c(O)c2)c1 | < 5% | 6.46 | 
